We go through four molecules from patent US20250057814A1, “ENDODONTIC BIOFILM-ERADICATION TECHNIQUE UTILIZING A DUAL-SYSTEM INTRACANAL MEDICATION” (priority 2023, published 2025).

The structures appear in SMILES notation. Marks after values point to notes of the source that are not given here.

One test has as its system E. coli ATCC 25922. To be noted: reference 26, cited from earlier work.
The subject of the next test is P. pseudomallei. To be noted: reference 208, cited from earlier work.
The next test concerns S. aureus NCTC 8325-4. To be noted: reference 215, cited from earlier work.
For a further test, the system named is endodontic lesions. Briefly: Intracanal medication of patients with large endodontic lesions, healing evaluated by CBCT and radiograph. Type of test: in vivo. To be noted: 12 months post obturation.

Consider `CC1(C)S[C@@H]2[C@H](NC(=O)[C@H](N)c3ccccc3)C(=O)N2[C@H]1C(=O)O` [Ampicillin], for which, in the test with E. coli ATCC 25922 (biofilm, minimal biofilm eradication concentration), the “Concentration effective against biofilm phenotype” value (shortened to “Concentration effective”) was 512^b μg/ml. In addition, the “MIC of planktonic phenotype” value in the test with E. coli ATCC 25922 (planktonic E. coli ATCC 25922) is recorded as 2 (MIC) μg/ml.

Consider `CC(C)(O/N=C(\C(=O)N[C@@H]1C(=O)N2C(C(=O)[O-])=C(C[n+]3ccccc3)CS[C@H]12)c1csc(N)n1)C(=O)O` [Ceftazidime], for which the “Concentration effective” value in the test on P. pseudomallei (biofilm, concentration required for ~99% reduction) is recorded as 800^c μg/ml. Also, in the test with P. pseudomallei (planktonic P. pseudomallei), the “MBC of planktonic phenotype” value was 8 (MBC) μg/ml.

Consider `CN[C@H](CC(C)C)C(=O)N[C@H]1C(=O)N[C@@H](CC(N)=O)C(=O)N[C@H]2C(=O)N[C@H]3C(=O)N[C@H](C(=O)N[C@H](C(=O)O)c4cc(O)cc(O)c4-c4cc3ccc4O)[C@H](O)c3ccc(c(Cl)c3)Oc3cc2cc(c3O[C@@H]2O[C@H](CO)[C@@H](O)[C@H](O)[C@H]2O[C@H]2C[C@](C)(N)[C@H](O)[C@H](C)O2)Oc2ccc(cc2Cl)[C@H]1O` [Vancomycin], for which the “Concentration effective” value in the test on S. aureus NCTC 8325-4 (biofilm, concentration required for 99% reduction) is 20^a μg/ml. The “MBC of planktonic phenotype” value in the test on S. aureus NCTC 8325-4 (planktonic S. aureus NCTC 8325-4) is 2 (MBC) μg/ml.

Consider `[Ca+2].[OH-].[OH-]` [calcium hydroxide], for which the “change in size of lesion, Example Case No. 3” value in the test with endodontic lesions (tooth 10) is “no change in the size of lesion”. Also, the “lesion healing, Example Case No. 3 side-by-side comparison” value in the test on endodontic lesions (four weeks of intra-canal medication, teeth 7 and 8 formula, tooth 10 calcium hydroxide) is reported as “non-healing of the smaller lesion”.
